# Reference: patent US20250213707A1, “COMPOUND FOR INCREASING EFFICACY OF ONCOLYTIC VIRUSES” (ABLEVIA BIOTECH GMBH, priority 2022, published 2025)
# System: IgG from human donors (anti-AAV antibodies)
# Test: Screen for anti-AAV antibodies in human sera, 2452 linear 15-amino-acid AAV peptides on microarrays (Table 1)
# Format: binding
# Set-up: key to group I: X: the deduplicated aggregate of the respective top 10 peptide hits for each donor was compiled and designated as group I; key to group II: X: the deduplicated aggregate of the respective top 25 peptide hits for each donor was compiled and designated as group II; key to group III: X: the deduplicated aggregate of the respective top 50 peptide hits for each donor was compiled and designated as group III
# Conditions: fluorescence; for group I: membership in deduplicated aggregate of top 10 peptide hits for each donor; for group II: membership in deduplicated aggregate of top 25 peptide hits for each donor
# Protocol: 2452 linear peptides derived from the sequences of 16 different AAVs and with a sequence length of 15 amino-acids each were synthesized.
# Samples obtained from human donors were screened for antibodies against these AAV-derived peptides immobilized on microarrays. To this end, IgG was prepared from blood obtained from the human donors by protein G purification. Each IgG sample was incubated with the peptide microarrays and Ig binding signals were detected by fluorescence. All antibody binding signals to the peptides on the arrays were background subtracted and ranked for each sample and a deduplicated aggregate of the respective top 250 peptide hits for each donor with the corresponding protein sequence of origin (as obtained from UniProt or other sources) was compiled (designated as group IV). Further, the deduplicated aggregate of the respective top 50 peptide hits for each donor was compiled and designated as group III. Further, the deduplicated aggregate of the respective top 25 peptide hits for each donor was compiled and designated as group II. Finally, the deduplicated aggregate of the respective top 10 peptide hits for each donor was compiled and designated as group I.
# Altogether, group I contains 110 distinct peptide hits (assigned to the corresponding AAV vectors in Table 1), group II contains 289 distinct peptide hits, group III contains 428 distinct peptide hits and group IV contains 1271 distinct peptide hits. Evidently, group I is a subset of group II which in turn is a subset of group III which in turn is a subset of group IV. Groups I-IV correspond to the top 4.4%, […], 17.5% and 51.8%, respectively, of all peptides screened.
# [1] = X = peptide in the deduplicated aggregate of the top 50 peptide hits for each donor (top 17.5% of all peptides screened), linear 15-amino-acid AAV peptides on microarrays, human donor IgG
# [2] = human donor IgG binding to linear 15-amino-acid AAV peptides on microarray
# [3] = membership in deduplicated aggregate of top 50 peptide hits for each donor, human donor IgG binding to linear 15-amino-acid AAV peptides on microarray
Substance,group III [1],group I [2],group II [2],group III [3]
453 (FGYSTPWGYFDFNRF; REGION 1..15: note = peptide derived from viral capsid protein) [compound 453],X,,,
454 (YFGYSTPWGYFDFNR; REGION 1..15: note = peptide derived from viral capsid protein) [compound 454],X,,,
459 (YSTGQVTVEMEWELK; REGION 1..15: note = peptide derived from viral capsid protein) [compound 459],X,,,
466 (ELKKENSKRWNPEIQ; REGION 1..15: note = peptide derived from viral capsid protein) [compound 466],X,,,
470 (ANNLTSTVQVFTDDD; REGION 1..15: note = peptide derived from viral capsid protein) [compound 470],X,,,
474 (ENSKRWNPEIQYTNN; REGION 1..15: note = peptide derived from viral capsid protein) [compound 474],X,,,
475 (AGPPKPKPNQQHQDQ; REGION 1..15: note = peptide derived from viral capsid protein) [compound 475],X,,,
476 (PSTSSDAEAGPSGSQ; REGION 1..15: note = peptide derived from viral capsid protein) [compound 476],X,,,
479 (DSTTTIANNLTSTVQ; REGION 1..15: note = peptide derived from viral capsid protein) [compound 479],X,,,
481 (LGLEAGPPKPKPNQQ; REGION 1..15: note = peptide derived from viral capsid protein) [compound 481],X,,,
483 (TMSAGGGGPLGDNNQ; REGION 1..15: note = peptide derived from viral capsid protein) [compound 483],X,,,
ADPPTTFSQAKLAS [SEQ ID NO: 1939],,X,X,X
APGKKRPVDQSPQE (REGION 1..14: note = peptide derived from viral capsid protein) [SEQ ID NO: 1918],,X,X,X
DAAALEHDKAYDQQ [SEQ ID NO: 1940],,X,X,X
DDEDKFFPMSGVMI (REGION 1..14: note = peptide derived from viral capsid protein) [SEQ ID NO: 1937],,X,X,X
DEEEIKATNPVATE (REGION 1..14: note = peptide derived from viral capsid protein) [SEQ ID NO: 1932],,X,X,X
DKAYDQQLKAGDNP (REGION 1..14: note = peptide derived from viral capsid protein) [SEQ ID NO: 1941],,X,X,X
DKAYDQQLQAGDNP (REGION 1..14: note = peptide derived from viral capsid protein) [SEQ ID NO: 1928],,X,X,X
DKAYDRQLDSGDNP (REGION 1..14: note = peptide derived from viral capsid protein) [SEQ ID NO: 1926],,X,X,X

Substance,group III [1],group I [2],group II [2],group III [3]
DKDKFFPMSGVMIF (REGION 1..14: note = peptide derived from viral capsid protein) [SEQ ID NO: 1933],,X,X,X
DSESVPDPQPIGEP (REGION 1..14: note = peptide derived from viral capsid protein) [SEQ ID NO: 1942],,X,X,X
DSQWLGDRVITTST (REGION 1..14: note = peptide derived from viral capsid protein) [SEQ ID NO: 1892],,X,X,X
DWLEDNLSEGIREW (REGION 1..14: note = peptide derived from viral capsid protein) [SEQ ID NO: 1943],,X,X,X
EEEIKTTNPVATEE (REGION 1..14: note = peptide derived from viral capsid protein) [SEQ ID NO: 1935],,X,X,X
EEIKTTNPVATEQY (REGION 1..14: note = peptide derived from viral capsid protein) [SEQ ID NO: 1945],,X,X,X
ESVPDPQPIGEPPA [SEQ ID NO: 1947],,X,X,X
EYQLPYVLGSAHQG (REGION 1..14: note = peptide derived from viral capsid protein) [SEQ ID NO: 1948],,X,X,X
FQERLQEDTSFGGN [SEQ ID NO: 1949],,X,X,X
GNTSQQQTDRNAFY (REGION 1..14: note = peptide derived from viral capsid protein) [SEQ ID NO: 1897],,X,X,X
GQNNNSNFAWTAGT [SEQ ID NO: 1936],,X,X,X
GTNTMATGSGAPMA (REGION 1..14: note = peptide derived from viral capsid protein) [SEQ ID NO: 1927],,X,X,X
HSQSLDRLMNPLID (REGION 1..14: note = peptide derived from viral capsid protein) [SEQ ID NO: 1951],,X,X,X
HYFGYSTPWGYFDF (REGION 1..14: note = peptide derived from viral capsid protein) [SEQ ID NO: 1917],,X,X,X
KGEPVNAADAAALE (REGION 1..14: note = peptide derived from viral capsid protein) [SEQ ID NO: 1952],,×,X,X
KNTPVPADPPTTES [SEQ ID NO: 1930],,X,X,X
KNTPVPADPPTTFS (REGION 1..14: note = peptide derived from viral capsid protein) [SEQ ID NO: 1953],,×,X,X
LPYVLGSAHQGCLP (REGION 1..14: note = peptide derived from viral capsid protein) [SEQ ID NO: 1954],,X,X,X
LQQQNAAPIVGAVN (REGION 1..14: note = peptide derived from viral capsid protein) [SEQ ID NO: 1955],,X,X,X
